According to article PMC9090415, “Discovery of small molecule inhibitors of Plasmodium falciparum apicoplast DNA polymerase” (Journal of Enzyme Inhibition and Medicinal Chemistry, 2022):

Target: P. falciparum apicoplast DNA polymerase (Pf-apPOL) (Plasmodium falciparum, UniProt Q8ILY1)
Assay: Fluorescence-based high-throughput DNA polymerase assay (molecular beacon), primary screen and dose-response
Type: biochemical
Settings: for DNA Pol: 90 min, 10 µM
Procedure: The HT assay employs a molecular beacon, a stem-loop DNA template with a Cy3 dye and the Black Hole Quencher on the 3′ and 5′ ends of the DNA, respectively. Pf-apPOL concentration is based on a calculated absorptivity of ε280 = 56750 M^−1 cm^−1. Reactions were carried out at 25 °C, using Corning 3575 […] (well-volume, 20 µL). Assays testing for compound inhibition composed of reaction buffer (pH 7.9 in 50 mM potassium acetate, 20 mM Tris-acetate and 10 mM magnesium acetate), Pf-apPOL (20 nM), DNA substrate (20 nM), dNTPs (6 µM), and compound (10 µM in DMSO). The DNA and nucleotide substrates (dNTPs) were at concentrations of 20 nM and 6 µM, respectively, in the assay. Pf-apPOL was incubated in the reaction buffer with dNTPs and the compound of interest (10 µM, in the assay) at 25 °C for 10 min. The DNA substrate was then added and the reaction was allowed to proceed for 90 min at 25 °C.
Each assay plate contained 16 negative controls (no Pf-apPOL, DMSO present) and 16 positive controls (Pf-apPOL present, no DMSO). The fluorescence of each well was determined using a BioTek Synergy Neo fluorescence plate reader using excitation and emission wavelengths of 555 and 570 nm, respectively.
In the above, Min is the average of fluorescence emission of the negative controls (substrate only), Max the average fluorescence emission from the positive controls (enzyme + substrate), and Test the emission from the assays in the presence of compounds (enzyme + compound + substrates). […] […] The IC50 of each compound was determined using Equation (2): (2) IC50= Vmax/(1+ (I/IC50)^n)
In the above, n measures cooperativity, with n > 1 indicating synergistic binding of more than a single molecule of the compound.
To identify apPOL inhibitors we utilised our previously developed high-throughput DNA polymerase assay. The HT assay is based on a molecular beacon DNA template that forms a stem-loop with a Cy3 dye and the Black Hole Quencher on the 3′ and 5′ ends of the DNA, respectively. DNA polymerase activity extends an annealed primer through the stem region, displacing the fluorophore from the quencher, thereby increasing its fluorescence (Figure 1(A)). The assay accurately recapitulates the kinetic behaviour of apPOL, as measured through more conventional low-throughput gel-based assays. The Z′ factor for the assay described here was 0.9 across all plates (data not shown).
Figure 1. High-throughput screening. (A) The fluorescent-based DNA polymerase assay used to screen the compound libraries. The DNA template strand is a hairpin loop with a primer annealed to the loop. The 3’ end of the primer is 11 bases away from the 6 bp duplex. Strand displacement activity of the DNA polymerase separates the Cy3 dye from the Black hole quencher leading to an increase in fluorescent signal. (B) The high-throughput assay workflow. The DNA polymerase is incubated with […] compound for 10 min prior to addition of the hairpin substrate. The reaction is quenched at 3 different time points and the fluorescent signal is measured and % inhibition is determined using the provided equation.

[1] = primary screen value of the 186 hits, unit not given

P. falciparum apicoplast DNA polymerase (Pf-apPOL), sequence (Q8ILY1 entry or part of it): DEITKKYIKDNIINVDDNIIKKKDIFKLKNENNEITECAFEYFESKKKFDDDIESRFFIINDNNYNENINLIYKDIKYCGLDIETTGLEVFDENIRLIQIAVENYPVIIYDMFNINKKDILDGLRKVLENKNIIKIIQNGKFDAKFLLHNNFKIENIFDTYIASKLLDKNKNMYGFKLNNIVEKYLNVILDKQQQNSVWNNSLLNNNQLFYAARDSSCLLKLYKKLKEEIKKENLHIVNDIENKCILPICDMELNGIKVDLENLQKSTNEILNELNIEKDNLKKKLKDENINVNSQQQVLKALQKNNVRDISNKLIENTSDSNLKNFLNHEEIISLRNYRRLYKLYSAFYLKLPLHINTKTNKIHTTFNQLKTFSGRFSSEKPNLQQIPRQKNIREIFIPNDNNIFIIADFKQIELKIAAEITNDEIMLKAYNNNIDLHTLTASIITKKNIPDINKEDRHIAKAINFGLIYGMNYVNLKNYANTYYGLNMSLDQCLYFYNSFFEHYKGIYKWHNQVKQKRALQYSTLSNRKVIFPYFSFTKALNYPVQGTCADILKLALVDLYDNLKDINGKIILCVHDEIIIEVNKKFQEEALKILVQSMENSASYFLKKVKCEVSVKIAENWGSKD

## NS(=O)(=O)c1ccc(NC(=O)c2ccc(N3C(=O)CCC3=O)cc2)cc1 [KU0025331]
DRC-1, concentration 2.5
  % inhibition Apo pol 10': 3.929%
  % inhibition apPOL 180': -7.42%
DRC-1, concentration 5
  % inhibition Apo pol 10': 17.6449%
  % inhibition apPOL 180': -1.0806%
DRC-1, concentration 10
  % inhibition Apo pol 10': 35.7836%
  % inhibition apPOL 180': 6.657%
DRC-1, concentration 20
  % inhibition Apo pol 10': 51.7902%
  % inhibition apPOL 180': 15.4098%
DRC-1, concentration 40
  % inhibition Apo pol 10': 82.955%
  % inhibition apPOL 180': 52.8887%
DRC-1, concentration 80
  % inhibition Apo pol 10': 86.1018%
  % inhibition apPOL 180': 79.9389%
DRC-1, 90', concentration 2.5
  % inhibition Apol 90': -2.372%
DRC-1, 90', concentration 5
  % inhibition Apol 90': 7.062%
DRC-1, 90', concentration 10
  % inhibition Apol 90': 19.6888%
DRC-1, 90', concentration 20
  % inhibition Apol 90': 33.4355%
DRC-1, 90', concentration 40
  % inhibition Apol 90': 69.7509%
DRC-1, 90', concentration 80
  % inhibition Apol 90': 83.6402%
DRC-2, 5', concentration 2.5 (unit not given)
  % inhibition Apo pol 5': 8%
DRC-2, 40', concentration 2.5 (unit not given)
  % inhibition Apol 40': 8%
DRC-2, 40', concentration 40 (unit not given)
  % inhibition Apol 40': 67%
DRC-2, 90', concentration 80 (unit not given)
  % inhibition ApPOL 90': 67%
DRC-2, 5', concentration 2.5
  % inhibition Apo pol 5': 8%
DRC-2, 5', concentration 5
  % inhibition Apo pol 5': 15%
DRC-2, 5', concentration 10
  % inhibition Apo pol 5': 23%
DRC-2, 5', concentration 20
  % inhibition Apo pol 5': 40%
DRC-2, 5', concentration 40
  % inhibition Apo pol 5': 46%
DRC-2, 5', concentration 80
  % inhibition Apo pol 5': 37%
DRC-2, 40', concentration 2.5
  % inhibition Apol 40': 8%
DRC-2, 40', concentration 5
  % inhibition Apol 40': 13%
DRC-2, 40', concentration 10
  % inhibition Apol 40': 21%
DRC-2, 40', concentration 20
  % inhibition Apol 40': 47%
DRC-2, 40', concentration 40
  % inhibition Apol 40': 67%
DRC-2, 40', concentration 80
  % inhibition Apol 40': 64%
DRC-2, 90', concentration 2.5
  % inhibition ApPOL 90': 5.53%
DRC-2, 90', concentration 5
  % inhibition ApPOL 90': 9%
DRC-2, 90', concentration 10
  % inhibition ApPOL 90': 17%
DRC-2, 90', concentration 20
  % inhibition ApPOL 90': 42%
DRC-2, 90', concentration 40
  % inhibition ApPOL 90': 68%
DRC-2, 90', concentration 80
  % inhibition ApPOL 90': 67%
DRC-2, concentration 2.5
  % inhibition apPOL 180': -4.26%
DRC-2, concentration 5
  % inhibition apPOL 180': -1.74%
DRC-2, concentration 10
  % inhibition apPOL 180': 4.49%
DRC-2, concentration 20
  % inhibition apPOL 180': 26%
DRC-2, concentration 40
  % inhibition apPOL 180': 65%
DRC-2, concentration 80
  % inhibition apPOL 180': 72%
[1]
  DNA Pol: 32
Primary screen value, head "DNA Pol", unit not given
  DNA Pol: 32

## O=C(O)c1nc(-c2ccccc2)nc2c1OCO2 [Molecule 45]
Supplemental file 2, sheet IC50 nontoxic compounds, Pf-apPOL
  IC50: 11.2 µM

## COc1ccc(S(=O)(=O)/N=C2\NC(=O)/C(=C3\C(=O)Nc4ccc([N+](=O)[O-])cc43)S2)cc1 [KU0054985]
'DNA Pol' of the 186 hits list (primary screen result), unit not given
  DNA Pol: 41
DRC-1, concentration 2.5
  % inhibition Apo pol 10': 18.5864%
  % inhibition apPOL 180': -5.136%
DRC-1, concentration 5
  % inhibition Apo pol 10': 36.9179%
  % inhibition apPOL 180': -1.681%
DRC-1, concentration 10
  % inhibition Apo pol 10': 67.7559%
  % inhibition apPOL 180': 15.3394%
DRC-1, concentration 20
  % inhibition Apo pol 10': 96.4602%
  % inhibition apPOL 180': 51.5386%
DRC-1, concentration 40
  % inhibition Apo pol 10': 99.5336%
  % inhibition apPOL 180': 94.1836%
DRC-1, concentration 80
  % inhibition Apo pol 10': 99.5405%
  % inhibition apPOL 180': 99.3305%
DRC-1, 90', concentration 2.5
  % inhibition Apol 90': 1.843%
DRC-1, 90', concentration 5
  % inhibition Apol 90': 6.911%
DRC-1, 90', concentration 10
  % inhibition Apol 90': 25.9736%
DRC-1, 90', concentration 20
  % inhibition Apol 90': 66.8469%
DRC-1, 90', concentration 40
  % inhibition Apol 90': 95.4915%
DRC-1, 90', concentration 80
  % inhibition Apol 90': 99.0869%
DRC-2, 5', concentration 2.5
  % inhibition Apo pol 5': 4%
DRC-2, 5', concentration 5
  % inhibition Apo pol 5': 9%
DRC-2, 5', concentration 10
  % inhibition Apo pol 5': 30%
DRC-2, 5', concentration 20
  % inhibition Apo pol 5': 52%
DRC-2, 5', concentration 40
  % inhibition Apo pol 5': 63%
DRC-2, 5', concentration 80
  % inhibition Apo pol 5': 67%
DRC-2, 40', concentration 2.5
  % inhibition Apol 40': 3.68%
DRC-2, 40', concentration 5
  % inhibition Apol 40': 6%
DRC-2, 40', concentration 10
  % inhibition Apol 40': 20%
DRC-2, 40', concentration 20
  % inhibition Apol 40': 38%
DRC-2, 40', concentration 40
  % inhibition Apol 40': 74%
DRC-2, 40', concentration 80
  % inhibition Apol 40': 82%
DRC-2, 90', concentration 2.5
  % inhibition ApPOL 90': 3.52%
DRC-2, 90', concentration 5
  % inhibition ApPOL 90': 5%
DRC-2, 90', concentration 10
  % inhibition ApPOL 90': 18%
DRC-2, 90', concentration 20
  % inhibition ApPOL 90': 33%
DRC-2, 90', concentration 40
  % inhibition ApPOL 90': 75%
DRC-2, 90', concentration 80
  % inhibition ApPOL 90': 85%
DRC-2, concentration 2.5
  % inhibition apPOL 180': 4.38%
DRC-2, concentration 5
  % inhibition apPOL 180': 2.14%
DRC-2, concentration 10
  % inhibition apPOL 180': 13%
DRC-2, concentration 20
  % inhibition apPOL 180': 26%
DRC-2, concentration 40
  % inhibition apPOL 180': 72%
DRC-2, concentration 80
  % inhibition apPOL 180': 88%
Primary screen value of the library well, unit not given
  DNA Pol: 41

## COc1cc(Cl)c(C)cc1NC(=O)Cn1ccc2c(=O)[nH]ccc21 [Molecule 33, COc1cc(Cl)c(cc1NC(=O)Cn1ccc2c1cc[nH]c2=O)C]
DRC-1, concentration 2.5
  % inhibition Apo pol 10': 1.493%
  % inhibition apPOL 180': -6.054%
DRC-1, concentration 5
  % inhibition Apo pol 10': 13.6047%
  % inhibition apPOL 180': -2.934%
DRC-1, concentration 10
  % inhibition Apo pol 10': 50.6447%
  % inhibition apPOL 180': 23.1917%
DRC-1, concentration 20
  % inhibition Apo pol 10': 68.9678%
  % inhibition apPOL 180': 50.4837%
DRC-1, concentration 40
  % inhibition Apo pol 10': 82.7027%
  % inhibition apPOL 180': 76.46%
DRC-1, concentration 80
  % inhibition Apo pol 10': 78.8716%
  % inhibition apPOL 180': 83.9917%
DRC-1, 90', concentration 2.5
  % inhibition Apol 90': -1.924%
DRC-1, 90', concentration 5
  % inhibition Apol 90': 4.488%
DRC-1, 90', concentration 10
  % inhibition Apol 90': 37.9384%
DRC-1, 90', concentration 20
  % inhibition Apol 90': 62.017%
DRC-1, 90', concentration 40
  % inhibition Apol 90': 81.936%
DRC-1, 90', concentration 80
  % inhibition Apol 90': 83.5925%
DRC-2, 5', concentration 2.5
  % inhibition Apo pol 5': -0.547%
DRC-2, 5', concentration 5
  % inhibition Apo pol 5': 14%
DRC-2, 5', concentration 10
  % inhibition Apo pol 5': 36%
DRC-2, 5', concentration 20
  % inhibition Apo pol 5': 42%
DRC-2, 5', concentration 40
  % inhibition Apo pol 5': 40%
DRC-2, 5', concentration 80
  % inhibition Apo pol 5': 31%
DRC-2, 40', concentration 2.5
  % inhibition Apol 40': -1.56%
DRC-2, 40', concentration 5
  % inhibition Apol 40': 18%
DRC-2, 40', concentration 10
  % inhibition Apol 40': 46%
DRC-2, 40', concentration 20
  % inhibition Apol 40': 60%
DRC-2, 40', concentration 40
  % inhibition Apol 40': 62%
DRC-2, 40', concentration 80
  % inhibition Apol 40': 57%
DRC-2, 90', concentration 2.5
  % inhibition ApPOL 90': -2%
DRC-2, 90', concentration 5
  % inhibition ApPOL 90': 15%
DRC-2, 90', concentration 10
  % inhibition ApPOL 90': 45%
DRC-2, 90', concentration 20
  % inhibition ApPOL 90': 61%
DRC-2, 90', concentration 40
  % inhibition ApPOL 90': 65%
DRC-2, 90', concentration 80
  % inhibition ApPOL 90': 63%
DRC-2, concentration 2.5
  % inhibition apPOL 180': -9%
DRC-2, concentration 5
  % inhibition apPOL 180': 6.65%
DRC-2, concentration 10
  % inhibition apPOL 180': 35%
DRC-2, concentration 20
  % inhibition apPOL 180': 56%
DRC-2, concentration 40
  % inhibition apPOL 180': 67%
DRC-2, concentration 80
  % inhibition apPOL 180': 68%
Primary screen value by plate and well
  DNA Pol: 43
[1]
  DNA Pol: 43
